Key:
[1] = tested on: patients diagnosed with cystitis; conditions: 80 mgs and up to 200 mgs as a 40 mL instillation; cited from earlier work
[2] = Solubility of CS in water; assay type: physicochemical; conditions: room temperature, sterile, distilled water
Description: In accordance with the present invention, the unit dose of CS administered to the patient is at least 250 mgs. More desirably, the unit dose of CS is at least 300 mgs. Preferably, the unit dose is at least 350 mgs. More preferably, the unit dose is at least 400 mgs. The upper end of the acceptable unit dose is capped, in theory, only by the solubility of the given type of CS in the chosen aqueous vehicle, and by the volume of that vehicle used in therapy. At room temperature and in sterile, distilled water, the solubility of CS approaches 50%. Thus, the upper limit of the CS unit dose can be 500 mgs/mL of vehicle. In accordance with the present invention, the unit dose of CS is desirably formulated in a solution volume that is sufficient to expose the bladder surface to be treated, and is at least tolerable and more desirably comfortable for the patient. The upper limit for such volumes lies below the volume causing hydrodistention, which is about 250 mL in some patients. For adult patients, solution volumes are suitably from about 5 mL or 10 mL up to about 100 mL, e.g. up to about 75 mL, and preferably up to about 50 mL. In a specific embodiment of the invention, a solution volume of about 40 mL is utilized. Accordingly, the upper limit of the unit dose of CS administrable to the patient at this volume can approach 20,000 mgs.

solubility [2]: about 50%
Substance: chondroitin sulfate [CS]
relief of symptoms including frequency, pain and urgency [1]: provided relief from at least one symptom

— patent US7772210B2, “Cystitis treatment with high dose chondroitin sulfate” (Stellar Pharmaceuticals Inc., priority 2004, dated 2010)
